Test results published in the NIST ThermoML archive (doi:10.1016/j.jct.2015.12.017).

How the values were obtained:
[1] = Molar enthalpy of transition or fusion
[2] = for molar entropy: 101.33 kPa

O=P([O-])([O-])[O-].[Co+2].[Cs+] [cesium cobalt(II) phosphate]
Settings | Molar enthalpy of transition or fusion, Crystal 2, DSC [kcal/mol] | Molar enthalpy of transition or fusion, Crystal 3, DSC [kcal/mol] | Molar enthalpy of transition or fusion, Crystal 4, Adiabatic calorimetry [kcal/mol] | Triple point temperature, Crystal 2, DSC [K] | Triple point temperature, Crystal 3, DSC [K] | Triple point temperature, Crystal 4, Adiabatic calorimetry [K]
[1] | 0.113 | 0.0824 | 0.00728 | – | – | –
[2] | – | – | – | 514.4 | 486.9 | 313.4

[2]
Settings | molar entropy [J/K/mol]
5 K, Crystal 4, Vacuum adiabatic calorimetry | 0.4864
6 K, Crystal 4, Vacuum adiabatic calorimetry | 0.7965
7 K, Crystal 4, Vacuum adiabatic calorimetry | 1.172
8 K, Crystal 4, Vacuum adiabatic calorimetry | 1.621
9 K, Crystal 4, Vacuum adiabatic calorimetry | 2.062
10 K, Crystal 4, Vacuum adiabatic calorimetry | 2.528
15 K, Crystal 4, Vacuum adiabatic calorimetry | 5.047
20 K, Crystal 4, Vacuum adiabatic calorimetry | 8.117
25 K, Crystal 4, Vacuum adiabatic calorimetry | 11.62
30 K, Crystal 4, Vacuum adiabatic calorimetry | 15.46
35 K, Crystal 4, Vacuum adiabatic calorimetry | 19.44
40 K, Crystal 4, Vacuum adiabatic calorimetry | 23.53
45 K, Crystal 4, Vacuum adiabatic calorimetry | 27.67
50 K, Crystal 4, Vacuum adiabatic calorimetry | 31.83
60 K, Crystal 4, Vacuum adiabatic calorimetry | 40.01
70 K, Crystal 4, Vacuum adiabatic calorimetry | 47.95
80 K, Crystal 4, Vacuum adiabatic calorimetry | 55.65
90 K, Crystal 4, Vacuum adiabatic calorimetry | 63.08
100 K, Crystal 4, Vacuum adiabatic calorimetry | 70.28
110 K, Crystal 4, Vacuum adiabatic calorimetry | 77.27
120 K, Crystal 4, Vacuum adiabatic calorimetry | 84.06
130 K, Crystal 4, Vacuum adiabatic calorimetry | 90.54
140 K, Crystal 4, Vacuum adiabatic calorimetry | 96.95
150 K, Crystal 4, Vacuum adiabatic calorimetry | 103.18
160 K, Crystal 4, Vacuum adiabatic calorimetry | 109.17
170 K, Crystal 4, Vacuum adiabatic calorimetry | 115.16
180 K, Crystal 4, Vacuum adiabatic calorimetry | 120.89
190 K, Crystal 4, Vacuum adiabatic calorimetry | 126.55
200 K, Crystal 4, Vacuum adiabatic calorimetry | 132.03
210 K, Crystal 4, Vacuum adiabatic calorimetry | 137.36
220 K, Crystal 4, Vacuum adiabatic calorimetry | 142.59
230 K, Crystal 4, Vacuum adiabatic calorimetry | 147.75
240 K, Crystal 4, Vacuum adiabatic calorimetry | 152.74
250 K, Crystal 4, Vacuum adiabatic calorimetry | 157.64
260 K, Crystal 4, Vacuum adiabatic calorimetry | 162.55
270 K, Crystal 4, Vacuum adiabatic calorimetry | 167.29
273.15 K, Crystal 4, Vacuum adiabatic calorimetry | 168.78
280 K, Crystal 4, Vacuum adiabatic calorimetry | 171.94
290 K, Crystal 4, Vacuum adiabatic calorimetry | 176.52
298.15 K, Crystal 4, Vacuum adiabatic calorimetry | 180.17
300 K, Crystal 4, Vacuum adiabatic calorimetry | 181.01
310 K, Crystal 4, Vacuum adiabatic calorimetry | 185.5
313.4 K, Crystal 3, Vacuum adiabatic calorimetry | 186.91
313.4 K, Crystal 4, Vacuum adiabatic calorimetry | 186.83
320 K, Crystal 3, Vacuum adiabatic calorimetry | 190.07
330 K, Crystal 3, Vacuum adiabatic calorimetry | 194.48
340 K, Crystal 3, Vacuum adiabatic calorimetry | 198.8
350 K, Crystal 3, Small sample (50 mg) DSC | 203.12
360 K, Crystal 3, Small sample (50 mg) DSC | 207.45
370 K, Crystal 3, Small sample (50 mg) DSC | 211.69
380 K, Crystal 3, Small sample (50 mg) DSC | 215.76
390 K, Crystal 3, Small sample (50 mg) DSC | 219.92
400 K, Crystal 3, Small sample (50 mg) DSC | 223.91
410 K, Crystal 3, Small sample (50 mg) DSC | 227.9
420 K, Crystal 3, Small sample (50 mg) DSC | 231.81
430 K, Crystal 3, Small sample (50 mg) DSC | 235.63
440 K, Crystal 3, Small sample (50 mg) DSC | 239.46
450 K, Crystal 3, Small sample (50 mg) DSC | 243.2
460 K, Crystal 3, Small sample (50 mg) DSC | 246.94
470 K, Crystal 3, Small sample (50 mg) DSC | 250.6
480 K, Crystal 3, Small sample (50 mg) DSC | 254.26
486.9 K, Crystal 2, Small sample (50 mg) DSC | 257.5
486.9 K, Crystal 3, Small sample (50 mg) DSC | 256.83
490 K, Crystal 2, Small sample (50 mg) DSC | 258.58
500 K, Crystal 2, Small sample (50 mg) DSC | 262.16
510 K, Crystal 2, Small sample (50 mg) DSC | 265.65
514.4 K, Crystal 1, Small sample (50 mg) DSC | 267.98
514.4 K, Crystal 2, Small sample (50 mg) DSC | 267.06
520 K, Crystal 1, Small sample (50 mg) DSC | 270.05
530 K, Crystal 1, Small sample (50 mg) DSC | 273.38
540 K, Crystal 1, Small sample (50 mg) DSC | 276.71
550 K, Crystal 1, Small sample (50 mg) DSC | 279.95
560 K, Crystal 1, Small sample (50 mg) DSC | 283.19
570 K, Crystal 1, Small sample (50 mg) DSC | 286.27
580 K, Crystal 1, Small sample (50 mg) DSC | 289.34
590 K, Crystal 1, Small sample (50 mg) DSC | 292.42
600 K, Crystal 1, Small sample (50 mg) DSC | 295.41
610 K, Crystal 1, Small sample (50 mg) DSC | 298.32
620 K, Crystal 1, Small sample (50 mg) DSC | 301.15
630 K, Crystal 1, Small sample (50 mg) DSC | 303.98
640 K, Crystal 1, Small sample (50 mg) DSC | 306.8
650 K, Crystal 1, Small sample (50 mg) DSC | 309.55
